According to patent publication US10670605B2, “Cysteine reactive probes and uses thereof” (The Scripps Research Institute, priority 2015, dated 2020):

Experiments:
Experiment in all cases: Competitive isoTOP-ABPP in situ (fragment-treated cells)
Type in all cases: cell-based
[1] = target: cysteines in MDA-MB-231 and Ramos cells (Homo sapiens, UniProt Q9Y5S2)
Method: (§1) Fragments 4 and 11 were screened at 100 μM in situ. […] Site-specific engagement of electrophilic fragments was assessed by blockade of IA-alkyne probe labeling. […] Ratios for unique peptide entries were calculated for each experiment; overlapping peptides with the same modified cysteine (e.g. different charge states, MudPIT chromatographic steps or tryptic termini) were grouped together and the median ratio was reported as the final ratio (R). The peptide ratios reported by CIMAGE were further filtered to ensure the removal or correction of low quality ratios in each individual dataset. […] R values were calculated and individual datasets were filtered as described above (R value calculation and processing).

[2] = target: T1, cysteines in MDA-MB-231 and Ramos cells (Homo sapiens, UniProt P05091)
T1 sequence (P05091 18-517): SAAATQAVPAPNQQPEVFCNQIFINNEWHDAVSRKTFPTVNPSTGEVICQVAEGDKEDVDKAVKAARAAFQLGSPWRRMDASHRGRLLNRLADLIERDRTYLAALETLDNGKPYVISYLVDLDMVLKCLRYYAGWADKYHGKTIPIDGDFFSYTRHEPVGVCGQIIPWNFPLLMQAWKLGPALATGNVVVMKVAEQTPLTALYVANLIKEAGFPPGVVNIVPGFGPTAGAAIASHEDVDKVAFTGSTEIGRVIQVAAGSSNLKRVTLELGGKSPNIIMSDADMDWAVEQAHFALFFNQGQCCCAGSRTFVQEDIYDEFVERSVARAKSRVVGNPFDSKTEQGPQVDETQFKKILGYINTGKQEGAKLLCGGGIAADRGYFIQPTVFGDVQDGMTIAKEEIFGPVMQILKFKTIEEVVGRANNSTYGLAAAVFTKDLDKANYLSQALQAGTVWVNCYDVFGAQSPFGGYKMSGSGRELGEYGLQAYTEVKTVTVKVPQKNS
Method: as §1

[3] = target: T2, cysteines in MDA-MB-231 and Ramos cells (Homo sapiens, UniProt Q7Z5K2)
T2 sequence (Q7Z5K2 1-1190): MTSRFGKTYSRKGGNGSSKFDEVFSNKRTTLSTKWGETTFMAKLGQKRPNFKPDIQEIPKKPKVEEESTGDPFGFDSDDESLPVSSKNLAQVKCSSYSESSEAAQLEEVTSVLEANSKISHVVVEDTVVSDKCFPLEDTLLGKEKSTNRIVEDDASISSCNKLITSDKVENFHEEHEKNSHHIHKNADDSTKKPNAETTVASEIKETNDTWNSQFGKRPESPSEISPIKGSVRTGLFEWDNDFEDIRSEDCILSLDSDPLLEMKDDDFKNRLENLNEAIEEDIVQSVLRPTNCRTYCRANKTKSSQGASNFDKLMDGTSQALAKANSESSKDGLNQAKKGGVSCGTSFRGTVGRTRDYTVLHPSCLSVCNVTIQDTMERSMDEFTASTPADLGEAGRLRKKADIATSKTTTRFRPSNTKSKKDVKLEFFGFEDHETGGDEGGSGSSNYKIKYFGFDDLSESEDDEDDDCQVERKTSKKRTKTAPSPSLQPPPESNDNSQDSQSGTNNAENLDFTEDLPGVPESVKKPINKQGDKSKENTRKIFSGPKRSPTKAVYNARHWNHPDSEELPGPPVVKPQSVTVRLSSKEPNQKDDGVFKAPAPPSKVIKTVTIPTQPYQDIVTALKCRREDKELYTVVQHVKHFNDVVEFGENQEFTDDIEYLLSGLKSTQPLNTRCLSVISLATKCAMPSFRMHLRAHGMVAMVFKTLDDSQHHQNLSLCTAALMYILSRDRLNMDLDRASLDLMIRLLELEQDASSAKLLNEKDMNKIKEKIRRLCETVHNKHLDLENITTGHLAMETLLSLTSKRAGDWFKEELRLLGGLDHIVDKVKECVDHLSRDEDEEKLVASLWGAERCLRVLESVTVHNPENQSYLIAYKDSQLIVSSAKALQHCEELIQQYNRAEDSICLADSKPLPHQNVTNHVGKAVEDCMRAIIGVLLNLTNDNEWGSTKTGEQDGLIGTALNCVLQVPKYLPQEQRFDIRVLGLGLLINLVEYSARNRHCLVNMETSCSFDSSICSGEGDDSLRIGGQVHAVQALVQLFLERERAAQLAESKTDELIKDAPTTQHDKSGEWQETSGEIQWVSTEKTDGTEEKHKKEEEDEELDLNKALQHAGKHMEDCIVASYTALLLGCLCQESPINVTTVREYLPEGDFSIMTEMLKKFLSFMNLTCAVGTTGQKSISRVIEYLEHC
Method: as §1

[4] = target: T3, cysteines in MDA-MB-231 and Ramos cells (Homo sapiens, UniProt Q9C0I1); conditions: 200 μM, insitu
T3 sequence (Q9C0I1 1-747): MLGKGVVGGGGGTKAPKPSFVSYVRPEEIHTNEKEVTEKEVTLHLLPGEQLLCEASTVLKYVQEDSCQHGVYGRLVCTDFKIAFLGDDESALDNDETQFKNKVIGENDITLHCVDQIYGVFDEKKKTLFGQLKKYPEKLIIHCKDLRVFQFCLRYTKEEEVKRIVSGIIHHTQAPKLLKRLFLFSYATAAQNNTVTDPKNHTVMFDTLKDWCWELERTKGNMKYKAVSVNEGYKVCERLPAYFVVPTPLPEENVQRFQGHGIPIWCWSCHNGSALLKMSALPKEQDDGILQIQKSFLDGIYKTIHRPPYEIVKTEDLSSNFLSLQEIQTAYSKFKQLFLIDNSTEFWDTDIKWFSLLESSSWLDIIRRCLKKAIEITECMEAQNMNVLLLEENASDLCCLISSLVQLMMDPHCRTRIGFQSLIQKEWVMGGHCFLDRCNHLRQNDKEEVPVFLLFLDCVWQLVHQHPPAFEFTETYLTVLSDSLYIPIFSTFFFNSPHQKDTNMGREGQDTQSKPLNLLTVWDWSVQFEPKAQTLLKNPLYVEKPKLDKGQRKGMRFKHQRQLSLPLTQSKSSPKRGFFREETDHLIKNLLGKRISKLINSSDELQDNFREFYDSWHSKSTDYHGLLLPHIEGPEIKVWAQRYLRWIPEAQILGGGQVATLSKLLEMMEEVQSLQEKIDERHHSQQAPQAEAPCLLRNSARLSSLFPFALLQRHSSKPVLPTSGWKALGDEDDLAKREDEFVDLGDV
Method: as §1

[5] = target: cysteines in MDA-MB-231 and Ramos cells (Homo sapiens, UniProt Q00610); conditions: 200 μM, insitu, 231
Sequence of cysteines in MDA-MB-231 and Ramos cells (Homo sapiens, UniProt Q00610) (Q00610 whole entry): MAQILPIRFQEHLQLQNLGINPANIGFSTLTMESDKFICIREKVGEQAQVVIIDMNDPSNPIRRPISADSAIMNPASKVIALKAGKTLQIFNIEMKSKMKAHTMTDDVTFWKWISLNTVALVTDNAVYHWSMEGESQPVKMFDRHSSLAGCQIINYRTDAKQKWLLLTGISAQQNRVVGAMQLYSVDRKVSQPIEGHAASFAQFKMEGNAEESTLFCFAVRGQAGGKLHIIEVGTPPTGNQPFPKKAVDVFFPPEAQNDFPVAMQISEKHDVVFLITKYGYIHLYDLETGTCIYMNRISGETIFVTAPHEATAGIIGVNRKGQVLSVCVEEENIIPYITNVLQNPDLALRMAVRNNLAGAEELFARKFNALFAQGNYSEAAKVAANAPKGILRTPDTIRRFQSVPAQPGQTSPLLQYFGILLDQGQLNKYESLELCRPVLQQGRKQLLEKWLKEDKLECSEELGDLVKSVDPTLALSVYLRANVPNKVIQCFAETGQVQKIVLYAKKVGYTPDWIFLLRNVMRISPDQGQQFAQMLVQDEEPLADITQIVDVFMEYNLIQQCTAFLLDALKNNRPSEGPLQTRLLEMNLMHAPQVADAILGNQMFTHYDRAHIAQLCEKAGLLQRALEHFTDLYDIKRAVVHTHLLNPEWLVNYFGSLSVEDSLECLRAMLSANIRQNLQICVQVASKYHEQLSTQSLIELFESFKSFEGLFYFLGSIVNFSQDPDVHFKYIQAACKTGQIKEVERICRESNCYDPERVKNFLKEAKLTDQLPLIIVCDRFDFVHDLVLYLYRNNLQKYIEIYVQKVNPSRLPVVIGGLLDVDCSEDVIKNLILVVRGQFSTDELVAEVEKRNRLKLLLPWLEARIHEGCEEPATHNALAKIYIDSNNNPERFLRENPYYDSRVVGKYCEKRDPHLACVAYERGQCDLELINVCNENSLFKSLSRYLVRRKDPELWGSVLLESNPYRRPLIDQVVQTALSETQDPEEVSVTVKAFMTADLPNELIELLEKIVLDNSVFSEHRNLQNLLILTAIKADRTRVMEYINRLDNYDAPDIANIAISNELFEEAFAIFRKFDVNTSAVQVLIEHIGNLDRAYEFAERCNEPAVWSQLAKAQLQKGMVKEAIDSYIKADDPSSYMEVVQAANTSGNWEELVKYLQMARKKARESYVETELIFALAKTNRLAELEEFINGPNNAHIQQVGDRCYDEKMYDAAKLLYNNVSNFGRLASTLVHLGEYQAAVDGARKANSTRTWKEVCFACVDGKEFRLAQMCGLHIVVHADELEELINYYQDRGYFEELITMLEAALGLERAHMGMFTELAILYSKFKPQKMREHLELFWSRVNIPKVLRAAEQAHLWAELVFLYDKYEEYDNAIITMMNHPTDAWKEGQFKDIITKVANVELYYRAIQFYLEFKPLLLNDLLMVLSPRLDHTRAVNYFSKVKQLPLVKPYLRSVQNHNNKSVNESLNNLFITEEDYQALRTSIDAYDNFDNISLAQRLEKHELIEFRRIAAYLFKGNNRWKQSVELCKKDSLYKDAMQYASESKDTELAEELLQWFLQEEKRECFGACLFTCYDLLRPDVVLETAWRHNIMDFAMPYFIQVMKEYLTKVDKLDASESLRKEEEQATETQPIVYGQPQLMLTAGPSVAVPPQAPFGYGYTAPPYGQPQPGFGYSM
Method: as §1

Sequence of cysteines in MDA-MB-231 and Ramos cells (Homo sapiens, UniProt Q9Y5S2) (Q9Y5S2 whole entry): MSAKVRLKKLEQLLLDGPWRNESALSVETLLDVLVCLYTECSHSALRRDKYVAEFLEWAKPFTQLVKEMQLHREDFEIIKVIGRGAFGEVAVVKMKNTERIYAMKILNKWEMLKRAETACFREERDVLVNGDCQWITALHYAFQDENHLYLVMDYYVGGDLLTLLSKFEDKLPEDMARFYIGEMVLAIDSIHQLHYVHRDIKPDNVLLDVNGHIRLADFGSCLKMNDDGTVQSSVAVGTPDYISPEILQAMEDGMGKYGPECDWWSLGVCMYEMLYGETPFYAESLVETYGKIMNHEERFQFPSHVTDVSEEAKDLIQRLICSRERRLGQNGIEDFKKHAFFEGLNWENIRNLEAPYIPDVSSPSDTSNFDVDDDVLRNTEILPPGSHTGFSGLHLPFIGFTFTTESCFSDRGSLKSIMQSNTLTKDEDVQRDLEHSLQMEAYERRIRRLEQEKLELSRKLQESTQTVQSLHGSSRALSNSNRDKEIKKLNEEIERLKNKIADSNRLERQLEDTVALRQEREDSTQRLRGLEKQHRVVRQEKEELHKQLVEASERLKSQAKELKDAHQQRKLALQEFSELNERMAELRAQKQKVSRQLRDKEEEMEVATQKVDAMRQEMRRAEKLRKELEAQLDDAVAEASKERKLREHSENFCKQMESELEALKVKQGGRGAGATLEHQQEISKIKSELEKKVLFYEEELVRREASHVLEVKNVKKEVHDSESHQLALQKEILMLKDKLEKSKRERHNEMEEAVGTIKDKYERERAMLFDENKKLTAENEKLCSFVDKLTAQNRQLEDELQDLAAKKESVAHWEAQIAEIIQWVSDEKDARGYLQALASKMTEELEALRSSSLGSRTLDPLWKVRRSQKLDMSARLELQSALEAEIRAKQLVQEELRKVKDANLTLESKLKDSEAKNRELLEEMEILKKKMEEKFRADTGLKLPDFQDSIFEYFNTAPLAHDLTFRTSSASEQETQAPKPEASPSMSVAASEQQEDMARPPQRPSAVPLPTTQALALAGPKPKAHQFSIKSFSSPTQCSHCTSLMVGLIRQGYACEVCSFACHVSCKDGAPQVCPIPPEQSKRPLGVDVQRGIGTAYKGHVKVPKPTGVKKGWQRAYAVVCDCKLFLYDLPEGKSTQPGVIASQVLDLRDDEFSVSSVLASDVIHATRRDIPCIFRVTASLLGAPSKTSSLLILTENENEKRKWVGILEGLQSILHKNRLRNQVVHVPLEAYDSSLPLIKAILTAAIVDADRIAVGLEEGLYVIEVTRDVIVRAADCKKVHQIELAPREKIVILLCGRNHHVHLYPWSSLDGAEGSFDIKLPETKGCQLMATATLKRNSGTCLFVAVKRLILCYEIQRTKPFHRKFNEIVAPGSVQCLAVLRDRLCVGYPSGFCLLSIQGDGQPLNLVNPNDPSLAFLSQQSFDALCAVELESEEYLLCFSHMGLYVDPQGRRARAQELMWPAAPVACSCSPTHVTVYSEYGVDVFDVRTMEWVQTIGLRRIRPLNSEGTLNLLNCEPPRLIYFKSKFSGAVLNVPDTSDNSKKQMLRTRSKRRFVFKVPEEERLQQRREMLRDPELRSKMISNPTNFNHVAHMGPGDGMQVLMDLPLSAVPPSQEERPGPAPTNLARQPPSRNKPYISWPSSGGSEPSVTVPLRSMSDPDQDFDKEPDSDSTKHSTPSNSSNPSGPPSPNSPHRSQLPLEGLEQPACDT

How did the “isoTOP-ABPP reactivity Q9Y5S2_C1517 CDC42BPB” value ([1]; 200 μM, insitu, 231) turn out when `COc1ccc2c(c1)CCCN2C(=O)CCl` [compound 2] was run?
The value was 20.0.

`COc1ccc(C2CC(c3cccs3)=NN2C(=O)CCl)cc1` (stereo not drawn) [compound 4] was tested. Which “isoTOP-ABPP reactivity Q9Y5S2_C1517 CDC42BPB” value ([1]; 100 μM in situ 231) did it give?
Its value is 20.0.

And the “isoTOP-ABPP reactivity P05091_C319 ALDH2” value ([2]; 100 μM in situ 231)?
Its value is 20.0.

With `O=C(CCl)N1CCN(S(=O)(=O)c2ccccc2F)CC1` [compound 10] as the compound, how does the “isoTOP-ABPP ratio, cysteine Q7Z5K2_C160” value ([3]; 200 μM, insitu, 231) read?
The value was 20.0.

How did the “isoTOP-ABPP ratio, cysteine Q9Y5S2_C1517” value ([1]; 100 μM in situ 231) turn out when `Cn1cc(S(=O)(=O)N2CCOCC2)cc1C(=O)NC(=O)CCl` [compound 11] was run?
Its value is 1.2.

And the “isoTOP-ABPP ratio, cysteine Q7Z5K2_C160” value ([3]; 100 μM in situ 231)?
Its value is 1.0.

Which results are given for `O=C(CCl)NC(=O)NC12CC3CC(CC(C3)C1)C2` [compound 12]?
isoTOP-ABPP ratio, cysteine Q9C0I1_C152 [4]; 231: 20.0; isoTOP-ABPP ratio, cysteine P05091_C319 ([2]; 200 μM, insitu, 231): 20.0; isoTOP-ABPP ratio, cysteine Q00610_C870 [5]: 0.9

With `O=C(CCl)NCCc1c[nH]c2ccccc12` [compound 13] as the compound, how does the “isoTOP-ABPP ratio, cysteine Q9C0I1_C152” value ([4]; ramos) read?
Its value is 6.5.

And the “isoTOP-ABPP ratio, cysteine Q00610_C870” value [5]?
Its value is 1.7.

`O=C(CCl)NC12CC3CC(CC(C3)C1)C2` [compound 21] was tested. Which “isoTOP-ABPP ratio, cysteine Q9C0I1_C152” value [4]; 231 did it give?
The value was 0.7.

With `O=C(CCl)N1CCN(CC(=O)N2CCOCC2)CC1` [compound 29] as the compound, how does the “isoTOP-ABPP ratio Q9C0I1_C152” value ([4]; ramos) read?
Its value is 4.6.

What about the “isoTOP-ABPP ratio Q7Z5K2_C160” value ([3]; 200 μM, insitu, ramos) of the same compound?
The value was 0.7.

What about the “isoTOP-ABPP ratio P05091_C319” value ([2]; 200 μM, insitu, ramos) of the same compound?
Its value is 10.5.

Which “isoTOP-ABPP ratio Q00610_C870” value [5] does the source give for `C=CC(=O)Nc1cc(F)c(N2CCN(C(=O)OC(C)(C)C)CC2)c(F)c1` [compound 38] here?
Its value is 20.0.

Which “isoTOP-ABPP ratio Q9Y5S2_C1517” value ([1]; 200 μM, insitu, 231) does the source give for `Cc1ccc(C=C(C#N)C(=O)NCCN2CCOCC2)cc1` [compound 41] here?
The value was 0.4.

What about the “isoTOP-ABPP ratio Q7Z5K2_C160” value ([3]; 200 μM, insitu, 231) of the same compound?
Its value is 1.0.

What about the “isoTOP-ABPP ratio P05091_C319” value ([2]; 200 μM, insitu, 231) of the same compound?
The value was 0.9.

Which results are given for `CC1CCc2ccccc2N1C(=O)CCl` (stereo not drawn) [compound 45]?
isoTOP-ABPP ratio Q9Y5S2_C1517 ([1]; 200 μM, insitu, 231): 20.0; isoTOP-ABPP ratio P05091_C319 ([2]; 200 μM, insitu, 231): 20.0
